In patent US20260356803A1, “Nicotinamide derivatives” (Board of Regents, The University of Texas System, priority 2024, published 2026):

Assays:
[1] = test system: S462 cells; experiment: Metabolism in S462 cells; type: cell-based, human; details: 500 nM compound
Procedure: (§1) We reasoned that 1 and 9 would likely be metabolized to 1-mononucleotide (1-MN) and 9-mononucleotide (9-MN) by NAMPT and then to 1-adenine dinucleotide (1-AD) and 9-adenine dinucleotide (9-AD) by NMNAT1. Thus, we analyzed extracts from cell-free reactions that co-incubate each compound with NAMPT, NMNAT1, PRPP, and ATP by high-resolution mass spectrometry to identify these putative metabolites based on exact mass. […] To test whether these compound metabolites were also produced in cells, we analyzed metabolic extracts from cells treated with either 1 or 9.
Prior to the experiment, cells were cultured in low-Nam DMEM for at least 1 passage (3 days) to deplete intracellular Nam. 15,000 cells were plated in a 96-well plate with 100 μL low-Nam media. At appropriate time points, 500 nM 1 or 9, or equal volume of vehicle (DMSO) were added using TECAN. 200 μL of acetonitrile with 0.1% formic acid were added to the assayed wells. For the 0-hour time point, compound or vehicle was added after the addition of acetonitrile and formic acid. […] The supernatants were filtered through 0.2 μm PVDF filters and analyzed by LC-MS/TOF. […]
(§2) Data analysis for TOF data was performed using SCIEX MultiQuant software version 3.0.3. For each of the compounds monitored, the theoretical exact m/z was calculated. […]

[2] = test system: primary mouse GBM cells; details: screen of 200,000 synthetic compounds; cited from earlier work
[3] = test system: NAMPT and NMNAT1; experiment: Cell-free metabolism by NAMPT and NMNAT1; type: biochemical; details: role: substrate, 200 μM compound, NMNAT1, 0.4 mM PRPP, 2.5 mM ATP, 37 °C
Procedure: as §1
A reaction mixture containing 50 mM Tris pH 8, 0.4 mM PRPP, 2.5 mM ATP, 12 mM MgCl2, 0.02% BSA, 1 μM NAMPT, 100 nM NMNAT1 and 200 μM compound 9 or 1 was incubated at 37 °C. Fifty microliter aliquots were quenched at the indicated time points by adding two volumes of acetonitrile with 0.1% formic acid and vortexing for 15 seconds. After incubation for ten minutes at room temperature, samples were centrifuged at 13,200 rpm for 5 minutes. The supernatants were filtered through 0.2 μm PVDF filters (Sigma #SLGV004SL) and analyzed by LC-MS/TOF. […]
as §2

[4] = test system: NMNAT1 or alcohol dehydrogenase; experiment: Counter screen with NMN in place of NAM; type: biochemical; details: role: inhibitor; 50 μM NMN substituted for NAM
Procedure: NAMPT activity was measured using a coupled-enzyme assay previously described [Revollo, 2014]. Briefly, reactions consisting of 50 mM Tris pH 8, 0.4 mM PRPP, 2.5 mM ATP, 12 mM MgCl2, 0.02% BSA, 1 μM NAMPT, 77 nM NMNAT1, 10 mM semicarbazide, 30 μg/ml alcohol dehydrogenase were set up in a 384-well plate (50 μl/well). […] The reactions were started by addition of 50 μM NAM. Fluorescence due to NADH formation by alcohol dehydrogenase was measured in a BioTek Cytation 5 plate reader (Agilent, USA) set up for excitation at λ=340 nm and detection of emission at λ=460 nm. To counter screen for NMNAT1 or alcohol dehydrogenase inhibition, the assay was set up above but substituting 50 μM NMN (substrate for NMNAT1) for NAM. No inhibition of was observed under these conditions.

[5] = test system: Schwann cells; details: cited from earlier work
[6] = test system: iHCT116 cells; experiment: Forward genetics resistance selection (IAA-inducible mutagenesis); type: cell-based
Source text: Second, we screened for resistance to 9 in iHCT116 cells, a system that uses inducible mutagenesis and forward genetics to find compound-resistant mutations and thus can reveal both loss of function and gain of function alleles that suppress activity. The iHCT116 system is a barcoded cell line in which we temporally control mutagenesis by the addition of indole acetic acid (IAA) mediated degradation of the mismatch repair protein MLH1.^12 MLN4924 is a small molecule toxin that we use as a positive control to verify that IAA treatment leads to increased mutations. By degrading MLH1 and increasing the overall mutation rate, IAA treatment increases the frequency of UBA3 mutations, leading to a higher rate of MLN4924 resistance. […] Having previously established a relationship between either NMNAT1 levels or NAMPT activity and compound resistance, we analyzed the levels of both enzymes in multiple resistant clones that harbored unique barcode sequences. […] To test whether reduced NMNAT1 levels in these clones contributed to resistance, we ectopically expressed NMNAT1 in either the parental cells or a representative resistant clone with low NMNAT1 expression.

[7] = test system: resistant iHCT116 clones; experiment: Metabolism of 9 in resistant iHCT116 clones; type: cell-based; details: parental and resistant clones
Source text: The experiments described above are consistent with the model that both 1 and 9 are converted by NAMPT and NMNAT1 into their respective MN and AD metabolites. It remains unclear, however, which of these two metabolites is contributing to toxicity. To address this question, we measured 9 metabolism, 9-MN and 9-AD levels upon treatment of the resistant clones identified through forward genetics. […] Clones 5 and 7 were resistant to 9 but had normal NAMPT and NMINAT levels.
Prior to the experiment, cells were cultured in low-Nam DMEM for at least 1 passage (3 days) to deplete intracellular Nam. 15,000 cells were plated in a 96-well plate with 100 μL low-Nam media. At appropriate time points, 500 nM 1 or 9, or equal volume of vehicle (DMSO) were added using TECAN. 200 μL of acetonitrile with 0.1% formic acid were added to the assayed wells. For the 0-hour time point, compound or vehicle was added after the addition of acetonitrile and formic acid. Following incubation for 10 minutes at room temperature, samples were transferred to Eppendorf tubes and centrifuged at 20,000×g for 5 minutes. The supernatants were filtered through 0.2 μm PVDF filters and analyzed by LC-MS/TOF.

[8] = resistant clones with unique barcodes

levels of parent compound over time in cells [1] | inhibition in counter screen [4] | metabolism of 9 over time [7] | SMILES | anti-proliferative activity [2] | levels of parent compound over time [3] | toxicity to Schwann cells [5] | NAMPT levels in 9-resistant clones [6, 8] | NMNAT1 protein levels downregulated in 9-resistant clones [6, 8] | difference in number of surviving clones Mut-off vs Mut-on ([6]; three lethal selection concentrations of 9)
time-dependent depletion | No inhibition | – | O=C(Nc1cccnc1)c1cccs1 [Compound 1, N-(pyridin-3-yl)thiophene-2-carboxamide] | hit | time-dependent decrease | nontoxic | – | – | –
time-dependent depletion | No inhibition | metabolized over time | O=C(Nc1cccs1)c1cccnc1 [Compound 9, N-(Thiophen-2-yl)nicotinamide] | – | time-dependent decrease | – | the same in all clones | five out of eight clones | did not observe a substantial difference
